One data set concerns the target T1, canine BGT1 (Canis lupus familiaris, UniProt P27799).
T1 construct: the MDCK II cell line express BGT1 endogenously; endogenous in cells; host or cells: MDCK II
T1 sequence (P27799 1-614): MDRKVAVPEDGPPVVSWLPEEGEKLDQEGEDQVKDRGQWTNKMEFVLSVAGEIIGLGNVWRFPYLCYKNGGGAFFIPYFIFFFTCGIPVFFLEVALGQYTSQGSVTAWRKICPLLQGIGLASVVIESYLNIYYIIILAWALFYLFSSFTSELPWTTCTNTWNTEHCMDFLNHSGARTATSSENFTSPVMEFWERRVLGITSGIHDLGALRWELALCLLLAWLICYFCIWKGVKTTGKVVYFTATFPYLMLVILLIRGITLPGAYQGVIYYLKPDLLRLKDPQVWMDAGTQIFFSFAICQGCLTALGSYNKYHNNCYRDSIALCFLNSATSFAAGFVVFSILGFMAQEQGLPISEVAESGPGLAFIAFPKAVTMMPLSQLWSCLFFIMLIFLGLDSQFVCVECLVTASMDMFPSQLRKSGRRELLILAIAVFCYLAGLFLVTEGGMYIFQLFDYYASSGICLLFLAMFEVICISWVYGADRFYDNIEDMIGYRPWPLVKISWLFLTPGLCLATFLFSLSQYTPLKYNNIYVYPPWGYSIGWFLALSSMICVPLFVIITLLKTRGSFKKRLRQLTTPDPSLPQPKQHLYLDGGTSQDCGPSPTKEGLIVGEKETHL
The experiment in a line: [3H]GABA uptake at canine BGT1 endogenously expressed in MDCK II cells. The class given is cell-based. The procedure:
(§1) The HEK-293 and Flp-In CHO cell lines stably expressing mouse (m) and human (h) GATs, respectively, have been described previously and were cultured accordingly. The tsA201 cell line was used for transient expression while the MDCK II cell line express BGT1 endogenously. Both cell lines were cultured as described. tsA201 cells were transfected with DNA constructs (8 μg per 10 cm dish if not otherwise mentioned) using 40 μL PolyFect transfection reagent according to the manufacturer’s protocol (Qiagen, Venlo, Netherlands). The DNA constructs encoding hBGT1, hGAT1-3 [36], the mutated constructs hBGT1 Q299 and hGAT3 L314Q described previously, and hBGT Y453A were synthesized and sequence validated by Genscript (NJ, USA).
(§2) The [^3H]GABA competition uptake assay was performed as previously described. A minor change, however, was introduced for uptake in MDCK II cells, in which 100 nM [^3H]GABA was used for a 15 min incubation period at 37 °C instead of 30 nM [^3H]GABA and 3 min incubation. Studies related to the inhibition curves with GABA and BPDBA at hBGT1 were obtained both with and without the presence of 10 μM ATP during the [^3H]GABA uptake assay.
(§3) The [^3H]GABA uptake data was normalized to the percentage of total uptake in the individual experiments in the presence of the lowest compound concentration or no compound present. Data presented is the pooled data of at least three independent experiments with three technical replicates. Concentration–response curves (CRCs) were fitted with GraphPad Prism (version 8.2.1, Yosemite, GraphPad Software, San Diego, CA, USA) by non-linear regression to the sigmoidal concentration response model: Y=Bottom+(Top-Bottom)/1+10^LogIC50-X∗nH where Top is the Top plateau, Bottom is the Bottom plateau, X is the logarithm of the concentration of the compound, LogIC50 is the concentration giving a response halfway between Top and Bottom,and nH is the Hill slope.
(§4) The best fit for CRCs obtained with the [^3H]GABA uptake assay was identified by the extra-sum-of-squares F test (for convenience referred to as F test).

A further data set has as its target T2, hGAT3 (Homo sapiens, UniProt P48066).
T2 construct: expressed in transfected cells
T2 sequence (P48066 1-632): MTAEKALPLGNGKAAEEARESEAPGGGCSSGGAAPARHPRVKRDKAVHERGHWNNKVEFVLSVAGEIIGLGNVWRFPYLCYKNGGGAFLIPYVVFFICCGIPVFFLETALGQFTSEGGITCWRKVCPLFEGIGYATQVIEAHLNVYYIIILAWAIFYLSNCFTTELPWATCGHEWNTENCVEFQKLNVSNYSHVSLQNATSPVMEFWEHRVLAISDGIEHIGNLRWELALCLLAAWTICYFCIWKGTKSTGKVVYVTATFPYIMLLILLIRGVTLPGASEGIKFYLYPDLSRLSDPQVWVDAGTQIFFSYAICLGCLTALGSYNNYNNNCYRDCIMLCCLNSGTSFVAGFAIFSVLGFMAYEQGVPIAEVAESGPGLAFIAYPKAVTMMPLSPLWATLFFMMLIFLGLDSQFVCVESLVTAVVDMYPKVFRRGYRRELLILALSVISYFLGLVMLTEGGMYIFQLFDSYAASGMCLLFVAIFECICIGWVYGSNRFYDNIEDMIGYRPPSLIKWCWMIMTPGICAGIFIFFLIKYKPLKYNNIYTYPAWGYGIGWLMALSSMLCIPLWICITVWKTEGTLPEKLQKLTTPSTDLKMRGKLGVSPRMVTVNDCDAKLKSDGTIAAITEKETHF
The experiment in a line: [3H]GABA uptake at hGAT3 stably expressed in CHO cells. Format: cell-based. Conditions: N=3. The procedure: as §1, §2, §3, §4

Another data set relates to AGS Frings mice. The experiment in a line: Audiogenic induced seizure test. Format: in vivo, mouse. The text has this:
Male audiogenic-susceptible (AGS) Frings mice were obtained from an in-house breeding facility at the University of Utah (Salt Lake City, UT, USA). Male CF-1 mice for the maximal electroshock (MES) test and the subcutaneous pentylenetetrazol (s.c.PTZ) seizure threshold test were purchased from Charles River (Kingston, WA, USA). All mice were housed in a temperature, humidity, and light (on at 6:00 AM) controlled facility at the University of Utah with access to ad libitum food and water except during testing. All procedures were carried out at the University of Utah in concordance with the National Institutes of Health Guidelines for the Care and Use of Laboratory Animals and under approval from the University of Utah’s Institutional Animal Care and Use Committee. The mice were euthanized in accordance with Public Health Service policies on the humane care of laboratory animals. […] The seizures were induced as previously described. In brief, Frings mice were placed in a Plexiglas cylinder (diameter 15 cm, height 18 cm) connected to an audio transducer and exposed to a sound stimulus of 110 decibel (11 kHz) for a duration of 20 s. […] Probit analysis was used to analyse the efficacy and tolerability results obtained from the dose–response studies and to calculate the median effective (ED50) dose, the median toxic dose (TD50), and the 95% confidence interval.

The results in this text go back to PMC7297817, “Pharmacological Characterization of a Betaine/GABA Transporter 1 (BGT1) Inhibitor Displaying an Unusual Biphasic Inhibition Profile and Anti-seizure Effects” (Neurochemical Research, 2020).

pIC50: −log10 of the molar value. Read-outs that look alike come from different tables or passages of the source.

As for `Cc1ccsc1C(=CCCN(C)[C@H]1CCCC[C@H]1C(=O)O)c1sccc1C` [SBV2-114, (1R,2S)-2-((4,4-bis(3-methylthiophen-2-yl)but-3-en-yl)(methyl)amino)cyclohexanecarboxylic acid], the Frac at canine BGT1 stood at 0.38; on hGAT3 (biphasic fit, CHO), 0.09. For the same compound, the pIC50 (in general, −log10 of the IC50, conventionally taken in molar units) is 7.00 against canine BGT1 (IC50, high affinity component, biphasic fit, 100 nM [3H]GABA, 15 min); 6.98 against canine BGT1 (pIC50 ± S.E.M., high affinity component, biphasic fit, 100 nM [3H]GABA, 15 min); 3.60 at canine BGT1 (read-out: IC50, low affinity component, biphasic fit, 100 nM [3H]GABA, 15 min); 5.68 on hGAT3 (biphasic fit, CHO, read-out: IC50, high affinity component); 3.22 at hGAT3 (read-out: IC50, low affinity component, biphasic fit, CHO). The Fit entry on hGAT3 (preferred model) is “Biphasic”. In addition, the “#Protected/#Tested” value in the data set on AGS Frings mice (50 mg/kg i.p., 15 min) is given as 3/4; in the data set on AGS Frings mice (50 mg/kg i.p., 30 min), 2/4; in the data set with AGS Frings mice (50 mg/kg i.p., 60 min) it was 1/4; with AGS Frings mice (50 mg/kg i.p., 120 min), 0/4; in the data set with AGS Frings mice (120 mg/kg i.p., 30 min) it was 4/4; with AGS Frings mice (120 mg/kg i.p., 60 min), 3/4. For the same compound, the “#Protected/#Tested” value in the data set with AGS Frings mice (120 mg/kg i.p., 120 min) is 2/4; in the data set on AGS Frings mice (120 mg/kg i.p., 240 min) it was 1/4. For the same compound, in the data set with AGS Frings mice (concluded from seizure protection after i.p. dosing), the brain permeance result is recorded as “brain-permeant”. For the same compound, the “time-to peak (TPE)” value with AGS Frings mice (i.p., Frings mice, a faster TPE cannot be excluded) was 15 min.
